Values joined by “and” are separate entries in the source; they are usually repeats but may differ in a detail not shown here. Equal entries are not always repeated. Where two headings read alike, the source gives them in different places.
Assays:
[1] = system: NR-53516 SARS-Related Coronavirus 2 Isolate New York—PV09158/2020; format: cell-based, SARS-CoV-2; settings: Vero-76 cells, after 4 days
[2] = system: USA-WA1/2020 (SARS-CoV-2) virus; format: in vivo, K18-hACE2 mice; settings: for Viral content by lung RT-qPCR, Log10, group AVG / Viral content by lung RT-qPCR, Mean Result, group AVG: day 6, 7 mice per group; for Viral content by lung RT-qPCR, Log10, group AVG / Viral content by lung RT-qPCR, Mean Result, group AVG / Viral content by lung RT-qPCR, Log10 (individual animals) / Viral content by lung RT-qPCR, Mean Result (individual animals): Imatinib 100 mg/kg, Niclosamide 200 mg/kg, alone or combined; for Viral content by lung RT-qPCR, Log10 (individual animals) / Viral content by lung RT-qPCR, Mean Result (individual animals): day 6, oral gavage once daily, Mebendazole 50 mg/kg
[3] = system: USA-WA1/2020 (SARS-CoV-2) virus; format: in vivo, K18-hACE2 mice; settings: for Lung (log10 TCID50/mL), group AVG: day 6, 7 mice per group, Mebendazole 50 mg/kg po; for Lung (log10 TCID50/mL), group AVG / Lung (log10 TCID50/mL), individual animals: Imatinib 100 mg/kg, Niclosamide 200 mg/kg, alone or combined; for Lung (log10 TCID50/mL), individual animals: day 6, Mebendazole 50 mg/kg po once daily
[4] = system: Vero 76 African green monkey kidney cells; settings: Vero 76 cells, any concentration tested up to 100 μM
Calu-3 = Calu-3 cells, any concentration tested up to 100 μM
[5] = target: Mast/stem cell growth factor receptor Kit (Homo sapiens, UniProt P10721); settings: cited from earlier work
Chain of Mast/stem cell growth factor receptor Kit (P10721 26-976, species assumed): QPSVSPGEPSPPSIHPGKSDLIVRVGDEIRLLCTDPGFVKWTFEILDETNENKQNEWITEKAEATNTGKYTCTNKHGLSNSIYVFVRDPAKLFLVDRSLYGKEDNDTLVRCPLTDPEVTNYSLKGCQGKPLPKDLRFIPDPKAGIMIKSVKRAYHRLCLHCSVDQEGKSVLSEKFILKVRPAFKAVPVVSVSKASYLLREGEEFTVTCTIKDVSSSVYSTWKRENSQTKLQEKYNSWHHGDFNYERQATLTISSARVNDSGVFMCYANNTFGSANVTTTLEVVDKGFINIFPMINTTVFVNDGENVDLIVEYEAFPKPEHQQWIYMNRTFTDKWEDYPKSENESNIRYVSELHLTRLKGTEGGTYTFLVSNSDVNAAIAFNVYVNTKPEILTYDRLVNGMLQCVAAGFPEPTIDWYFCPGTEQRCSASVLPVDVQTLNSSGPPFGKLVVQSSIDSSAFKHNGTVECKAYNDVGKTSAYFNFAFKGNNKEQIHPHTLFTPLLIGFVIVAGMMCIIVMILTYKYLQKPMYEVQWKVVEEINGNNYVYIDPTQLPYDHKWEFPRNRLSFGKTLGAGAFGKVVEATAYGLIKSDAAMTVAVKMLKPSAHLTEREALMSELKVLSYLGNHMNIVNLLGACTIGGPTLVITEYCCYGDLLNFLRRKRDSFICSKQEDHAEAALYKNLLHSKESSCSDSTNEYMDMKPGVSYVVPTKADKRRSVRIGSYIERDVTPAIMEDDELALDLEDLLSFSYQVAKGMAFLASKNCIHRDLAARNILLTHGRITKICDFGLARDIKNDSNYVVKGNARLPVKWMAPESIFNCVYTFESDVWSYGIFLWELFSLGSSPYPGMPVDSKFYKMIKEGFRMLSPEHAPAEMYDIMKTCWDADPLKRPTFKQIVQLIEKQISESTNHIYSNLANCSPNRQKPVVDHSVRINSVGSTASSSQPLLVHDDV

[6] = oral Imatinib dose of 400 mg/day; cited from earlier work
[7] = system: SARS-CoV-2 (USA-WA1/2020 Isolate); assay: microbe, parasite or virus in culture; format: cell-based; settings: Calu-3 cells
SARS-CoV-2 = settings: human hepatoma cell line (Huh 7.5 cells) infected with SARS-CoV-2; cited from earlier work
[8] = cited from earlier work
human coronavirus NL63 = settings: microtubule inhibitor, compared with actin inhibitors; cited from earlier work
[9] = day 6, Mebendazole 50 mg/kg po, alone or with Imatinib 100 mg/kg po

SMILES: CNC(=O)c1ccccc1Sc1ccc2c(/C=C/c3ccccn3)n[nH]c2c1 [Axitinib]
- reduction in viral load (Average Virus TCID50/ml*10^6) ([1]; 500 nano molar): 66.4%

SMILES: COc1cc(Nc2c(C#N)cnc3cc(OCCCN4CCN(C)CC4)c(OC)cc23)c(Cl)cc1Cl [Bosutinib]
- reduction in viral load (Average Virus TCID50/ml*10^6) ([1]; 50 nano molar): 47.3%

SMILES: COc1cc2ncnc(Nc3ccc(F)c(Cl)c3)c2cc1OCCCN1CCOCC1 [Gefitinib]
- reduction in viral load (Average Virus TCID50/ml*10^6) ([1]; 50 nano molar): 53.54%

SMILES: Cc1ccc(NC(=O)c2ccc(CN3CCN(C)CC3)cc2)cc1Nc1nccc(-c2cccnc2)n1 [Imatinib]
- reduction in viral load (Average Virus TCID50/ml*10^6) ([1]; 10 micro molar): 29.6%
- Viral content by lung RT-qPCR, Log10, group AVG ([2]; Mebendazole 50 mg/kg po): 7.8
- Viral content by lung RT-qPCR, Mean Result, group AVG ([2]; Mebendazole 50 mg/kg po): 9.54E+07
- Viral content by lung RT-qPCR, Log10 (individual animals) [2]: 7.6 and 7.7 and 7.9 (2×) and 8.0 and 7.3 and 8.5
- Viral content by lung RT-qPCR, Mean Result (individual animals) [2]: 3.67E+07 and 5.37E+07 and 7.80E+07 and 9.13E+07 and 2.15E+07 and 7.53E+07 and 3.12E+08
- animals positively affected (lung TCID50) ([3]; day 6, 7 animals per group): a single animal
- Lung (log10 TCID50/mL), group AVG [3]: 7.4 log10 TCID50/mL
- Lung (log10 TCID50/mL), individual animals [3]: 8.3 log10 TCID50/mL and 7.5 log10 TCID50/mL and 5.3 log10 TCID50/mL and 7.6 log10 TCID50/mL and 8.5 log10 TCID50/mL and 8.0 log10 TCID50/mL and 6.5 log10 TCID50/mL
- cytotoxicity (MTT) [4]: no cytotoxicity was observed
- cytotoxicity (MTT) (Calu-3): no cytotoxicity was observed
- known to target (value in brackets, measure not stated) [5]: 16 nM
- expected trough plasma concentration [6]: 1.7 µM

SMILES: COC(=O)Nc1nc2ccc(C(=O)c3ccccc3)cc2[nH]1 [Mebendazole]
- inhibition of SARS-CoV-2 (in words) ([7]; 2.3-5000 nM): Complete or near complete inhibition
- EC50 ([7]; Severe acute respiratory syndrome coronavirus 2, 24 h pretreatment, read 48 h after inoculation, MOI 0.005, read-out: EC50, inhibition of SARS-CoV-2): 0.102 µM
- Viral content by lung RT-qPCR, Log10, group AVG ([2]; Mebendazole 50 mg/kg po): 7.8
- Viral content by lung RT-qPCR, Mean Result, group AVG ([2]; Mebendazole 50 mg/kg po): 4.36E+07
- Viral content by lung RT-qPCR, Log10 (individual animals) [2]: 7.9 (2×) and 7.7 and 7.3 (2×) and 7.6 and 7.5
- Viral content by lung RT-qPCR, Mean Result (individual animals) [2]: 7.15E+07 and 4.97E+07 and 7.76E+07 and 1.90E+07 and 2.03E+07 and 3.73E+07 and 2.95E+07
- Mean % Reduction of Lung Tissue RT-qPCR Titers vs. the Group Mean of Placebo Treated Mice [2, 9]: 44.2%
- Percent Reduction of Lung Tissue RT-qPCR Titers (Individual Animals) vs. the Group Mean of Placebo Treated Mice [2, 9]: 8.45% and 36.36% and 0.64% and 75.67% and 74.01% and 52.24% and 62.23%
- Lung (log10 TCID50/mL), group AVG [3]: 5.8 log10 TCID50/mL
- Lung (log10 TCID50/mL), individual animals [3]: 6.0 log10 TCID50/mL and 5.3 log10 TCID50/mL (2×) and 4.8 log10 TCID50/mL and 5.5 log10 TCID50/mL and 7.3 log10 TCID50/mL and 6.5 log10 TCID50/mL
- antiviral activity compared to the Vero E6 cells (SARS-CoV-2): appeared to be lower
- share of a single oral dose that reaches systemic circulation ([8]; humans, extensive first-pass metabolism): less than 10%
- elimination half-life ([8]; in vivo): 3 to 6 h
- higher exposure at steady-state ([8]; long-term oral administration): ~3 fold
- share of an oral dose excreted in urine ([8]; oral dose): < 2%

SMILES: O=C(Nc1ccc([N+](=O)[O-])cc1Cl)c1cc(Cl)ccc1O [Niclosamide]
- Viral content by lung RT-qPCR, Log10, group AVG ([2]; Mebendazole 50 mg/kg po): 7.7
- Viral content by lung RT-qPCR, Mean Result, group AVG ([2]; Mebendazole 50 mg/kg po): 8.46E+07
- Viral content by lung RT-qPCR, Log10 (individual animals) [2]: 7.6 and 6.7 and 7.5 (2×) and 8.0 and 8.5 and 7.9
- Viral content by lung RT-qPCR, Mean Result (individual animals) [2]: 4.28E+07 and 5.54E+06 and 3.04E+07 and 9.85E+07 and 3.08E+08 and 7.72E+07 and 2.97E+07
- Lung (log10 TCID50/mL), group AVG [3]: 6.1 log10 TCID50/mL
- Lung (log10 TCID50/mL), individual animals [3]: 6.3 log10 TCID50/mL and 5.5 log10 TCID50/mL (3×) and 8.5 log10 TCID50/mL and 6.8 log10 TCID50/mL and 4.3 log10 TCID50/mL

SMILES: COC(=O)Nc1nc2ccc(C(=O)c3cccs3)cc2[nH]1 [nocodazole]
- reduction of virus entry (human coronavirus NL63): did not

From US20230398114A1, “METHODS OF TREATING CORONAVIRUS DISEASE AND COMPOUNDS FOR SAME” (priority 2020, published 2023)
